Data taken from patent US20230172944A1, “ROCK INHIBITORS FOR USE IN TREATING OR PREVENTING PULMONARY EDEMA” (ATRIVA THERAPEUTICS GMBH, priority 2020, published 2023).

Key:
[1] = test system: IAV A/Puerto Rico/8/32 (H1N1); experiment: Body weight of infected mice; format: in vivo, C57BL/6 mice; details: 10 mg/kg 1×daily in saline solution, 500 PFU/mouse, 7 days
Protocol: PR8: Body weight of mice infected with IAV A/Puerto Rico/8/32 (H1N1, 500 PFU/mouse). […] The experiment was planned for 7 days only. Afterwards the mice were euthanized for ethical reasons.
All animal experiments were performed according to the latest guidelines of the “Federation of European Laboratory Animal Science Associations (FELASA)” and approved by the local committee of the Max-Planck Laboratory for Heart & Lung Research Instituto de Investigación en Biomedicina de Buenos Aires (IBioBA). Six-week-old BALB/c mice (n=5 per group) were infected by intra-tracheal inoculation of 500 plaque-forming units (pfu)/mouse of PR8 in a volume of 30 μl. […] As a control IP injection of sterile PBS −/− were applied. Body weight was monitored every day until day 8 p.i.. On the day 7 after treatment start (=day 8 p.i.) mice were sacrificed by an overdose of isoflurane.

[2] = test system: IAV A/Puerto Rico/8/32 (H1N1); experiment: Virus titer of lung homogenizates (foci assay); format: in vivo, mice; details: 10 mg/kg 1×daily for 6 days, 500 PFU/mouse, 7th day p.i., n=3
Protocol: PR8: Virus titer of lung homogenizates from mice infected with IAV A/Puerto Rico/8/32 (H1N1, 500 PFU/Mouse) were infected (7th day p.i.).
For the foci forming assay, MDCK II cells were seeded in 96-well plates at a concentration of 3×10^6 cells/plate. The next day, 10-fold dilutions in duplicates (from 10^−1 to 10^−8) in PBS+/+/BA/PS was prepared from each virus sample in U-shaped 96-well. Importantly, during the preparation of the dilutions the pipet tips were changed after each dilution step. The MDCK II cells in the 96-well plate(s) were washed once with PBS+/+. […] 1 hour later, cells again were washed with 400 μl of washing buffer and 40 μl 3-Amino-9-ethylcarbazole (AEC)-staining buffer (1×AEC diluted N—N-dimethylformamide in acetate buffer (50 mM ammonium acetate, 8.8 mM H202) were added to each well. Following incubation for 30 min at 37° C. until foci could be detected, the staining buffer was removed and cells were washed twice with dH2O. Air-dried plates were scanned by using the Epson Perfection V500 Photo scan (Epson) at 1200 dpi and total number of foci was determined per well. Since Avicel-medium has a high viscosity that prevents diffusion of virus particles in surrounding media, virus can spread only from one cell to other forming foci. […]

[3] = test system: IAV A/Puerto Rico/8/32 (H1N1); experiment: Lung histology (Hematoxilin/Eosin) and nuclear count quantification of infiltrates; format: in vivo; details: 10 mg/kg 1×daily for 6 days, 5 mice, 7th day p.i., Aperio nuclear count
[4] = test system: Calu3 cells infected with influenza virus A/Puerto Rico/8/34; experiment: Coomassie staining of confluent polarized Calu3 cells (virus-induced epithelial cell damage); format: cell-based; details: 5 μM, MOI=5, Coomassie 24 h p.i.
[5] = test system: polarized Calu3 cells infected with influenza virus A/Puerto Rico/8/34 (H1N1); experiment: Vectorial water transport (FITC-dextran) over polarized Calu3 cells; format: cell-based, human
[6] = test system: Calu3 cells infected with influenza virus A/Puerto Rico/8/34 (H1N1); experiment: Antibody staining and confocal laser-scanning microscopy of apical NKA localization; format: cell-based, human; details: PR8-infected Calu3 cells treated with ROCK inhibitor, 20 h p.i.
Protocol: In order to obtain highly polarized Calu3 cells, the cell monolayer in a 175 cm^2 tissue culture flask grown to 50% confluence was washed once with PBS −/− and treated with Trypsin-EDTA. Cells were resuspended in 10 ml culture medium and centrifuged for 15 min at 300×g, 24° C. Supernatant was discarded and cells were resuspended in 5 ml of culture medium. 30 μl of cell suspension were mixed with 30 μl of 0.4% trypan blue dye and cell concentration was calculated in Neubauer chamber according manufacturer's instruction. Cells were dilute to a concentration of 2×10^6 viable cells/ml in Calu3 culture medium and 250 μl/125 μl of the cell suspension containing 0.5×10^6/0.25×10^6 viable cells were placed to the apical compartment of each Transwells® insert in a 12/24 well plate. 1/0.3 ml of Calu-3 culture medium was added into the basolateral compartments, avoiding the introduction of air bubbles and cells were cultivated at 37° C., 5% CO2. For the cells grown under the Liquid-Liquid Interface (LLI) condition, medium was replaced in both compartments each second day. For Air-Liquid Interface (ALI), culture medium was aspirated from the apical compartment on the day two, whereas medium was replaced every 2 days in the basolateral compartments.
For immunofluorescence assay cells were washed ones with PBS+/+ and fixed with or without extra permeabilization at the indicated time points. […]

| Compound | body weight loss of infected mice [1] | virus titer in the lungs of infected mice [2] | number of infiltrates (quantification, total cell count/mm2) [3] | virus-induced epithelial cell damage (cytopathic effect) [4] | vectorial water transport (VWT) [5] | cell viability of infected Calu3 cells (Calu3 cells) | cell viability of non-infected Calu3 cells (Calu3 cells; 5 μM, 0, 6, 16, 24 hours, mock set to 100%) | apical sodium-potassium-ATPase (NKA) localization [6] |
| --- | --- | --- | --- | --- | --- | --- | --- | --- |
| Cl.O=S(=O)(c1cccc2cnccc12)N1CCCNCC1 [Fasudil HCl, Isoquinoline 5-[(hexahydro-1H-1,4-diazepin-1-yl)sulfonyl]-N-(5-Isoquinolinesulfonyl)-1,4-per-hydrodiazepine] | tendential reduction of the body weight loss | reduces the virus titer in the lungs of infected mice | reduces the number of infiltrates |  |  |  |  |  |
| O=C(NCc1cccc(O)c1)Nc1nc(-c2ccncc2)cs1 [Rho XIII, 1-(3-Hydroxybenzyl)-3-(4-(pyridin-4-yl)thiazol-2-yl)urea] |  |  |  | reduces virus-induced epithelial cell damage in vitro | improves vectorial water transport | increases cell viability | increases cell viability | prevents apical sodium-potassium-ATPase (NKA) localization |
